Test results taken from PubChem BioAssay (NCI).
Values joined by “and” are separate entries in the source; they are usually repeats but may differ in a detail not shown here. Equal values may be shown once.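 Five concentrations, 48 hours, 96-well plates. The concentration for 50% growth inhibition is given as GI50. TGI: concentration producing complete growth inhibition.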

Assays:
Assay in all cases: DTP human tumour cell line panel, 48 h
[1] = test system: HS 578T breast
[2] = test system: SNB-75 CNS
[3] = test system: EKVX NSCLC
[4] = test system: SK-MEL-28 melanoma
[5] = test system: NCI-H460 lung
[6] = test system: COLO 205 colon
[7] = test system: CCRF-CEM leukemia
[8] = test system: HCC-2998 colon
[9] = test system: UACC-62 melanoma
[10] = test system: HCT-15 colon
[11] = test system: NCI/ADR-RES ovarian
[12] = test system: DU-145 prostate
[13] = test system: U251 CNS
[14] = test system: MDA-N
[15] = test system: OVCAR-4 ovarian
[16] = test system: MCF7 breast
[17] = test system: HOP-62 NSCLC
[18] = test system: HCT-116 colon
[19] = test system: SF-295 CNS
[20] = test system: SF-539 CNS
[21] = test system: UO-31 renal
[22] = test system: BT-549 breast
[23] = test system: MOLT-4 leukemia
[24] = test system: SW-620 colon
[25] = test system: SR leukemia
[26] = test system: SK-MEL-2 melanoma
[27] = test system: SN12C renal
[28] = test system: CAKI-1 renal
[29] = test system: HL-60(TB) leukemia
[30] = test system: PC-3 prostate
[31] = test system: M14 melanoma
[32] = test system: SK-OV-3 ovarian
[33] = test system: KM12 colon
[34] = test system: A498 renal
[35] = test system: RPMI-8226 leukemia
[36] = test system: MDA-MB-231 breast
[37] = test system: SNB-19 CNS
[38] = test system: HT29 colon
[39] = test system: UACC-257 melanoma
[40] = test system: OVCAR-8 ovarian
[41] = test system: MALME-3M melanoma
[42] = test system: 786-0 renal
[43] = test system: HOP-92 NSCLC
[44] = test system: IGROV1 ovarian
[45] = test system: T-47D breast
[46] = test system: OVCAR-3 ovarian
[47] = test system: SF-268 CNS
[48] = test system: A549 NSCLC
[49] = test system: SK-MEL-5 melanoma
[50] = test system: ACHN renal
[51] = test system: OVCAR-5 ovarian
[52] = test system: RXF 393 renal
[53] = test system: TK-10 renal
[54] = test system: LOX IMVI melanoma
[55] = test system: MDA-MB-435
[56] = test system: K-562 leukemia
[57] = test system: NCI-H226 lung

Compound: N#CCCN(CCCN(CCCN(C(=O)Nc1ccccc1)c1ccccc1)C(=O)Nc1ccccc1)C(=O)Nc1ccccc1
- TGI [1]: > 100 µM
- GI50 [2]: 59.5 µM
- TGI [2]: > 100 µM
- GI50 [3]: 16.3 µM
- TGI [3]: > 8.75 µM and 70.5 µM
- GI50 [4]: > 100 µM
- TGI [4]: > 100 µM
- TGI [5]: > 8.75 µM
- GI50 [6]: > 100 µM
- TGI [6]: > 100 µM
- GI50 [7]: 4.35 µM
- TGI [7]: > 8.75 µM and 43.1 µM
- TGI [8]: > 100 µM
- GI50 [9]: > 100 µM
- TGI [9]: > 100 µM
- TGI [10]: > 100 µM
- GI50 [11]: > 100 µM
- TGI [11]: > 100 µM
- GI50 [12]: > 100 µM
- TGI [12]: > 100 µM
- TGI [13]: > 100 µM
- GI50 [14]: > 100 µM
- TGI [14]: > 100 µM
- TGI [15]: > 100 µM
- GI50 [16]: 11.9 µM
- TGI [16]: > 100 µM
- GI50 [17]: > 100 µM
- TGI [17]: > 100 µM
- GI50 [18]: > 100 µM
- TGI [18]: > 100 µM
- GI50 [19]: > 100 µM
- TGI [19]: > 100 µM
- GI50 [20]: > 100 µM
- TGI [20]: > 100 µM
- TGI [21]: > 8.75 µM
- GI50 [22]: > 100 µM
- TGI [22]: > 100 µM
- GI50 [23]: 3.95 µM
- TGI [23]: > 100 µM
- GI50 [24]: > 100 µM
- TGI [24]: > 100 µM
- TGI [25]: > 8.75 µM
- GI50 [26]: > 100 µM
- TGI [26]: > 100 µM
- GI50 [27]: > 100 µM
- TGI [27]: > 100 µM
- GI50 [28]: > 100 µM
- TGI [28]: > 100 µM
- GI50 [29]: 5.2 µM
- TGI [29]: > 8.75 µM and 15.6 µM
- GI50 [30]: > 100 µM
- TGI [30]: > 100 µM
- GI50 [31]: > 100 µM
- TGI [31]: > 100 µM
- GI50 [32]: > 100 µM
- TGI [32]: > 100 µM
- GI50 [33]: 18.7 µM
- TGI [33]: > 100 µM
- TGI [34]: > 100 µM
- GI50 [35]: 3.89 µM
- TGI [35]: > 100 µM
- GI50 [36]: > 100 µM
- TGI [36]: > 100 µM
- TGI [37]: > 8.75 µM
- TGI [38]: > 8.75 µM
- GI50 [39]: > 100 µM
- TGI [39]: > 100 µM
- GI50 [40]: 85.2 µM
- TGI [40]: > 100 µM
- GI50 [41]: 16 µM
- TGI [41]: > 8.75 µM and 67.2 µM
- GI50 [42]: > 100 µM
- TGI [42]: > 100 µM
- TGI [43]: 80.4 µM
- GI50 [44]: 31.7 µM
- TGI [44]: > 100 µM
- GI50 [45]: > 100 µM
- TGI [45]: > 100 µM
- GI50 [46]: > 100 µM
- TGI [46]: > 100 µM
- GI50 [47]: 74.8 µM
- TGI [47]: > 100 µM
- GI50 [48]: > 100 µM
- TGI [48]: > 100 µM
- GI50 [49]: > 100 µM
- TGI [49]: > 100 µM
- TGI [50]: > 8.75 µM
- GI50 [51]: > 100 µM
- TGI [51]: > 100 µM
- GI50 [52]: > 100 µM
- TGI [52]: > 100 µM
- GI50 [53]: > 100 µM
- TGI [53]: > 100 µM
- TGI [54]: > 100 µM
- GI50 [55]: 34.9 µM
- TGI [55]: > 100 µM
- TGI [56]: > 8.75 µM
- TGI [57]: > 100 µM
